In BindingDB's records for patent US20250282741 (Innovo Therapeutics, 2025):

Molecular target: T1, Serpin H1 (Human, UniProt P50454)
T1 sequence (P50454 whole entry): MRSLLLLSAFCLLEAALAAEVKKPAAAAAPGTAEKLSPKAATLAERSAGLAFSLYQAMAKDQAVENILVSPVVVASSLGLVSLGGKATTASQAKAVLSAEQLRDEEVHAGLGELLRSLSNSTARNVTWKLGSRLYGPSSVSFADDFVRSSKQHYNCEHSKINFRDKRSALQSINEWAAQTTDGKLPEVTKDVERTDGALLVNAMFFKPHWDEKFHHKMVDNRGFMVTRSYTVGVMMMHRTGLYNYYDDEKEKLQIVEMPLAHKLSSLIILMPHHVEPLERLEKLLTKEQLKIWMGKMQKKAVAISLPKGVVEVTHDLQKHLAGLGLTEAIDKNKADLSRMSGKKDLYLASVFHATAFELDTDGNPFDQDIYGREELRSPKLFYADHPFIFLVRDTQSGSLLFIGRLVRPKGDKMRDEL
Experiment: Inhibition of HSP47 Function
Experimental: Fibrils were formed by adding 180 ul of phosphate-buffered saline (PBS, pH 7.4) solution to 20 ul of collagen dissolved in acidic solution (collagen solution, UK), which was measured at a wavelength of 340 nm. HSP47 (GenScript US) was added at a concentration of 9.45 μg/ml to assess HSP47 activity as the degree to which it inhibits fibril formation. Test compound was added with concentrations of 100 μM to 1 μM and the inhibitory activity of HSP47 was calculated as a percentage or EC50.

| EC50 | SMILES |
| --- | --- |
| 15.9 µM | CCc1oc2c(Cl)cccc2c1C(=O)c1cc(I)c(O)c(I)c1 [US20250282741, Example 14] |
| 73.1 µM | CCc1oc2cc(Cl)ccc2c1C(=O)c1cc(Br)c(O)c(Br)c1 [US20250282741, Example 12] |
| 32.1 µM | CCc1oc2cc(C(F)(F)F)ccc2c1C(=O)c1cc(Br)c(O)c(Br)c1 [US20250282741, Example 22] |
